Laboratory results taken from patent publication US6861555B2, “Calcium dicarboxylate ethers, methods of making same, and treatment of vascular disease and diabetes therewith” (Warner-Lambert Company, priority 2000, dated 2005).
Counter-ions that a name gives are not always drawn. Each block holds one molecule with its values, some of them ahead of it.

Tests used:
[1] = Bulk density (loose and tapped) of CI-1027 lots; conditions: for Bulk Density Loose / Bulk Density Tapped: per lot
[2] = system: monkey hepatocytes; assay: In vitro metabolism in monkey hepatocytes using radiolabeled compound; assay type: in vitro ADME
[3] = Pharmacokinetics of CI-1027 in rat; assay type: in vivo
[4] = Pharmacokinetics of CI-1027, species not stated; assay type: in vivo
[5] = Pharmacokinetics of CI-1027 in monkey; assay type: in vivo
[6] = system: Lp(a) and other lipoprotein parameters; assay: Effects on Lp(a) and other lipoprotein parameters, oral gavage, transgenic mouse study; assay type: in vivo, Lp(a) transgenic mice; set-up: maximum decrease in total plasma cholesterol: dose or concentration left out as unconfirmed
Description: (§1) The effects of CI-1027 of Formula II, Crystalline Form 1, on Lp(a) and other lipoprotein parameters in two models of elevated Lp(a) were determined by the following in vivo assays
(§2) Cynomolgus macaque monkeys and Lp(a) transgenic mice are dosed with CI-1027 at 3, 10, 30, 100, or 300 mg/kg for 2 weeks by oral gavage. […] In the transgenic mouse study, female mice were allocated into five groups with equivalent Lp(a) levels, and dosed by oral gavage with either vehicle alone or vehicle plus CI-1027 (3, 10, 30, and 100 mg/kg/day). Blood is sampled weekly (2 weeks prior to treatment, 2 weeks on treatment).

[7] = Pharmacokinetics of CI-1027 in dog; assay type: in vivo
[8] = Mean recovery of 14C dose in excreta, intact and bile-fistula cannulated rats; assay type: in vivo, rat; conditions: 10 mg/kg
[9] = system: rat hepatocytes; assay: In vitro metabolism in rat hepatocytes using radiolabeled compound; assay type: in vitro ADME
[10] = Mean recovery of 14C dose in excreta, intact and bile-fistula cannulated monkeys; assay type: in vivo, monkey; conditions: 10 mg/kg
[11] = system: plasma proteins; assay: In vitro binding to plasma proteins; assay type: in vitro ADME
[12] = system: Lp(a) and other lipoprotein parameters; assay: Effects on Lp(a) and other lipoprotein parameters, oral gavage for 2 weeks, monkeys; assay type: in vivo, Cynomolgus macaque monkeys
Description: as §1, §2

[13] = in vivo
Description: Metabolite profiling is performed by HPLC with radiometric detection and metabolites arc identified by LC/RAM/MS/MS.

[14] = system: dog hepatocytes; assay: In vitro metabolism in dog hepatocytes using radiolabeled compound; assay type: in vitro ADME
[15] = Observed electrostatic charge retention of bulk product; assay type: physicochemical; conditions: compared with amorphous product / salts dried without humidification
Excerpt: Additional analysis on the post-humidification dried dialkylcarboxylic acid ether monocalcium salt (II) is indicative of the formation of a salt which is associated with between about 0.1 and about 1 molar equivalent of water per equivalent of dialkylcarboxylic acid ether calcium salt (II), as shorn in FIGS. 1 and 15, for example.

[16] = Salt form and hygroscopic status: comparison of salts of 72953; assay type: physicochemical; conditions: after complete drying
Excerpt: Following the general procedure of Example 1, 72953 was reacted with sodium hydroxide, potassium hydroxide, and acetylcholine in stoichiometric ratios of 1:1 per dialkanoic acid molecule, and 2:1 per dialkanoic acid molecule. The properties of the solids thus prepared, following complete drying, were compared to the calcium salt (CI-1027) from Example 1.

[17] = in vivo, other: intravenous (IV) and per orals (PO), intravenous (IV) and per orals (PO), read-out: apparent elimination half-life

Molecule: CC(C)(CCCCOCCCCC(C)(C)C(=O)[O-])C(=O)[O-].[Ca+2] [listing 1 of 2 here]
Bulk Density Loose [1]: 0.336 g/mL
Bulk Density Tapped [1]: 0.439 g/mL

Molecule: CC(C)(CCCCOCCCCC(C)(C)C(=O)[O-])C(=O)[O-].[Ca+2] [listing 2 of 2 here]
bulk density, average ([1]; amorphous form): about 0.3 gm/mL

Molecule: 6-(5-carboxy-5-methyl-hexyloxy)-2,2-dimethylhexanoic acid monocalcium salt hydrate, Crystalline Form 1 [Example 1]
bulk density following tapping, average ([1]; highly crystalline salt after humidification process): about 0.4 g/mL

Molecule: CC(C)(CCCCOCCCCC(C)(C)C(=O)[O-])C(=O)[O-].[Ca+2] [CD-3221A]
Bulk Density Loose [1]: 0.372 g/mL
Bulk Density Tapped [1]: 0.521 g/mL

Molecule: CC(C)(CCCCOCCCCC(C)(C)C(=O)O)C(=O)O [Example 1, 6-(5-carboxy-5-methyl-hexyloxy)-2,2-dimethylhexanoic acid monocalcium salt hydrate, Crystalline Form 1]
electrostatic character of bulk product ([15]; listed as CI-1027 hydrate Crystalline Form 1): less electrostatic than the amorphous form
electrostatic character of bulk product ([15]; listed as Crystal Form 1): less capable of retaining an electrostatic charge
Physical Properties of Solid (hygroscopic status) [16]: None to Slight Hygroscopic

Molecule: CC(C)(CCCCOCCCCC(C)(C)C(=O)O)C(=O)O [Example 12, 6-(5-carboxy-5-methyl-hexyloxy)-2,2-dimethylhexanoic acid monocalcium salt. Crystalline Form 2]
electrostatic character of bulk product ([15]; listed as Crystal Form 2, monocalcium salt): less capable of retaining an electrostatic charge

Molecule: CC(C)(CCCCOCCCCC(C)(C)C(=O)[O-])C(=O)[O-].C[N+](C)(C)CCO.C[N+](C)(C)CCO [di-choline]
Physical Form [16]: Oil

Molecule: CC(C)(CCCCOCCCCC(C)(C)C(=O)[O-])C(=O)[O-].[K+].[K+] [di-potassium]
Physical Form [16]: Solid
Physical Properties of Solid (hygroscopic status) [16]: Very Hygroscopic

Molecule: CC(C)(CCCCOCCCCC(C)(C)C(=O)[O-])C(=O)[O-].[Na+].[Na+] [di-sodium]
Physical Form [16]: Solid
Physical Properties of Solid (hygroscopic status) [16]: Very Hygroscopic

Molecule: CC(C)(CCCCOCCCCC(C)(C)C(=O)O)C(=O)[O-].C[N+](C)(C)CCO [mono-choline]
Physical Form [16]: Oil

Further lines, with some results ahead:

Bulk Density Loose [1]: 0.280 g/mL
Bulk Density Tapped [1]: 0.315 g/mL
Molecule: CC(C)(CCCCOCCCCC(C)(C)C(=O)[O-])C(=O)[O-].[Ca+2] [CD-3055]

Bulk Density Loose [1]: 0.234 g/mL
Bulk Density Tapped [1]: 0.337 g/mL
Molecule: CC(C)(CCCCOCCCCC(C)(C)C(=O)[O-])C(=O)[O-].[Ca+2] [CD-3082]

Bulk Density Loose [1]: 0.215 g/mL
Bulk Density Tapped [1]: 0.270 g/mL
Molecule: CC(C)(CCCCOCCCCC(C)(C)C(=O)[O-])C(=O)[O-].[Ca+2] [CD-3102]

Bulk Density Loose [1]: 0.343 g/mL
Bulk Density Tapped [1]: 0.484 g/mL
Molecule: CC(C)(CCCCOCCCCC(C)(C)C(=O)[O-])C(=O)[O-].[Ca+2] [CD-3103]

Bulk Density Loose [1]: 0.218 g/mL
Bulk Density Tapped [1]: 0.264 g/mL
Molecule: CC(C)(CCCCOCCCCC(C)(C)C(=O)[O-])C(=O)[O-].[Ca+2] [CD-3111]

Bulk Density Loose [1]: 0.242 g/mL
Bulk Density Tapped [1]: 0.379 g/mL
Molecule: CC(C)(CCCCOCCCCC(C)(C)C(=O)[O-])C(=O)[O-].[Ca+2] [CD-3135]

Bulk Density Loose [1]: 0.235 g/mL
Bulk Density Tapped [1]: 0.300 g/mL
Molecule: CC(C)(CCCCOCCCCC(C)(C)C(=O)[O-])C(=O)[O-].[Ca+2] [CD-3243]

absorption [3]: rapidly absorbed
half-life [3, 17]: 5 to 7 h
Oral bioavailability [4]: appeared to be high
linearity of pharmacokinetics [4]: nonlinear
absorption [5]: rapidly absorbed
half-life [5, 17]: 9 to 15 h
absorption [7]: rapidly absorbed
half-life [7, 17]: 17 to 31 h
Mean recovery in bile ([8]; Fistula Rat): 87.5 percent ^14C dose
Mean recovery in feces ([8]; Fistula Rat): 0.72 percent ^14C dose
Mean recovery in urine ([8]; Fistula Rat): 10.5 percent ^14C dose
Mean total recovery ([8]; Fistula Rat): 98.7 percent ^14C dose
Mean recovery in feces ([8]; Intact Rat): 56.9 percent ^14C dose
Mean recovery in urine ([8]; Intact Rat): 37.0 percent ^14C dose
Mean total recovery ([8]; Intact Rat): 93.9 percent ^14C dose
Mean recovery in bile ([10]; Fistula Monkey): 42.0 percent ^14C dose
Mean recovery in feces ([10]; Fistula Monkey): 3.82 percent ^14C dose
Mean recovery in urine ([10]; Fistula Monkey): 62.2 percent ^14C dose
Mean total recovery ([10]; Fistula Monkey): 108 percent ^14C dose
Mean recovery in feces ([10]; Monkey (intact)): 17.3 percent ^14C dose
Mean recovery in urine ([10]; Monkey (intact)): 78.1 percent ^14C dose
Mean total recovery ([10]; Monkey (intact)): 95.4 percent ^14C dose
In vitro binding to plasma proteins [11]: species and concentration dependent
primary binding protein [11]: Albumin
metabolite detected in bile and urine [13]: acyl-glucuronide is detected
share of plasma radioactivity that was unchanged drug [13]: ~100%
Molecule: CC(C)(CCCCOCCCCC(C)(C)C(=O)[O-])C(=O)[O-].[Ca+2] [CI-1027, 6-(5-carboxy-5-methyl-hexyloxy)-2,2-dimethylhexanoic acid monocalcium salt (1:1)]
14C peaks found in hepatocyte incubation [2]: two major ^14C peaks, intact drug, and a glucuronide conjugate
enterohepatic recirculation [4]: seemed to undergo enterohepatic recirculation
decrease in plasma Lp(a) compared to mice dosed with vehicle alone ([6]; female mice, 3 mg/kg/day oral gavage, after 1 week): −15%
decrease in plasma Lp(a) compared to mice dosed with vehicle alone ([6]; female mice, 10 mg/kg/day oral gavage, after 1 week): −41%
decrease in plasma Lp(a) compared to mice dosed with vehicle alone ([6]; female mice, 30 mg/kg/day oral gavage, after 1 week): −54%
decrease in plasma Lp(a) compared to mice dosed with vehicle alone ([6]; female mice, 100 mg/kg/day oral gavage, after 1 week): −61%
HDL cholesterol (lipoprotein profiles by HPLC) ([6]; female mice, after 1 week): remained unchanged
LDL cholesterol (lipoprotein profiles by HPLC) ([6]; female mice, after 1 week): significant decreases
decrease in plasma apoB ([6]; female mice, after 1 week): up to 30%
maximum decrease in total plasma cholesterol ([6]; female mice, after 1 week): 32%
ratio of HDL cholesterol to VLDL+LDL cholesterol ([6]; with treatment, control value 0.39): 0.65
14C peaks found in hepatocyte incubation [9]: two major ^14C peaks, intact drug, and a glucuronide conjugate
Lp(a) lowering ([12]; 3 mg/kg/day): −9%
Lp(a) lowering ([12]; 10 mg/kg/day): −23%
Lp(a) lowering ([12]; 30 mg/kg/day): −64%
Lp(a) lowering ([12]; 100 mg/kg/day): −68%
Lp(a) lowering ([12]; 300 mg/kg/day): −87%
HDL cholesterol ([12]; 3-300 mg/kg): decreased
total plasma cholesterol ([12]; 3-300 mg/kg): decreased
14C peaks found in hepatocyte incubation [14]: two major ^14C peaks, intact drug, and a glucuronide conjugate
